Experimental data: article PMC5543150, “Antimalarial troponoids, puberulic acid and viticolins; divergent synthesis and structure-activity relationship studies” (Scientific Reports, 2017)
Values after ≈ are worked out from the molar mass of the structure shown. Like-named read-outs stand apart in the source and are kept apart here.

Tests used:
[1] = tested on: Plasmodium falciparum K1 (chloroquine-resistant) parasite strain; assay: In vitro antimalarial assay (p-LDH, 72 h) against Plasmodium falciparum K1 strain; format: cell-based; settings: for IC50: Plasmodium falciparum; for fold better IC50 than those of 7 and 37: relative to 7 and 37
Procedure: Briefly, the P. falciparum K1 strain was cultured in human erythrocytes in RPMI medium supplemented with 10% human plasma at 37 °C, under 93% N2, 4% CO2, and 3% O2. Asynchronous parasites (2% hematocrit and 0.5 or 1% parasitaemia) were seeded in a 96-well microtiter plate and serially diluted test compounds were added. […] After 72-hours incubation, parasite lactate dehydrogenase (p-LDH) was assayed using a slight modification of the procedure reported by Makler et al.[31] and Vivas et al.[32]. The 50% inhibitory concentration (IC50) value was calculated from a dose response curve. This study was approved by “Kitasato Institute Hospital Research Ethics Committee (No12102)” using human erythrocytes donated by volunteers.
3. Biological evaluation of synthesized derivatives
3-1. In vitro cultivation of Plasmodium falciparum and the antimalarial assay In vitro cultivation and antimalarial activity against the Plasmodium falciparum […]
previously1). Briefly, the P. falciparum K1 strain was cultured in human erythrocytes in RPMI medium supplemented with 10% human plasma at 37 °C, under 93% N2, 4% CO2, and 3% O2. Asynchronous parasites (2% hematocrit and 0.5 or 1% parasitaemia) were seeded in a 96-well microtiter plate and serially diluted test compounds were added.
After 72-hours incubation, parasite lactate dehydrogenase (p-LDH) was assayed using a slight modification of the procedure reported by Makler et al2) and Vivas et al3). The 50% inhibitory concentration (IC50) value was calculated from a dose response curve.
This study was approved by “Kitasato Institute Hospital Research Ethics Committee (No12102)” using human erythrocytes donated by volunteers.
(§1) 3-2. Cytotoxic assay against MRC-5 cells
Measurement of cytotoxicity against human fetal lung fibroblast MRC-5 cells was carried out as described previously4).
1) K. Otoguro, A. Kohana, C. Manabe, A. Ishiyama, H. Ui, K. Shiomi, H. Yamada, S. […]
2) M. T. Makler, J. M. Ries, J. A. Williams, J. E. Bancroft, R. C. Piper, B. L. Gibbins, […]
D. J. Hinrichs, Am. J. Med. Hyg. 1993, 48, 739-741.
3) L. Vivas, A. Easton, H. Kendrick, A. Cameron, J.-L. Lavandera, D. Barros, F. G. de las Heras, R. L. Brady, S. L. Croft, Exper. Parasitol. 2005, 111, 105-114.
4) K. Otoguro, H. Ui, A. Ishiyama, N. Arai, M. Kobayashi, Y. Takahashi, R. Masuma, K. Shiomi, H. Yamada, S. Ōmura, J. Antibiot. 2003, 56, 322-324.

[2] = Cytotoxic assay against MRC-5 cells; settings: human
Procedure: Measurement of cytotoxicity against human fetal lung fibroblast MRC-5 cells was carried out as described previously.
3. […]
as §1
Measurement of cytotoxicity against human fetal lung fibroblast MRC-5 cells
was carried out as described previously4). […]
4) K. Otoguro, H. Ui, A. Ishiyama, N. Arai, M. Kobayashi, Y. Takahashi, R. Masuma,
K. Shiomi, H. Yamada, S. Ōmura, J. Antibiot.

[3] = tested on: Plasmodium falciparum K1 (chloroquine-resistant) parasite strain; settings: natural products and simple troponoids, previously reported, cited from earlier work; for IC50 Antimalarial activity (K1 strain) / Selectivity index MRC-5/K1: Table S1; for IC50: read-out: IC50, antimalarial activity against Plasmodium falciparum K1 strain
[4] = tested on: human fetal lung fibroblast MRC-5 cells; design: method as in earlier work; settings: Table S1; natural products and simple troponoids, previously reported; cited from earlier work
[5] = tested on: P. berghei; design: method as in PMID 21063422, PMID 24713875; settings: 2 mg/kg × 4, subcutaneous (s.c.), 4-day suppressive test; cited from earlier work
[6] = design: method as in PMID 21063422, PMID 24713875; settings: s.c. dose of 5 mg/kg × 2 (day 0 and 1), by day 3; cited from earlier work
[7] = K1, Table S1, synthesized compounds and positive controls, read-out: IC50 Antimalarial activity (K1 strain)
[8] = K1, synthesized derivatives, in vitro, read-out: IC50 Antimalarial activity (K1 strain)
[9] = Table S1, synthesized compounds and positive controls
[10] = MRC-5 cells (fetal lung fibroblasts), IC50 Cytotoxicity (MRC-5), Table S1, synthesized compounds and positive controls
[11] = MRC-5 cells (fetal lung fibroblasts), IC50 Cytotoxicity (MRC-5), synthesized derivatives
[12] = MRC-5 cells (fetal lung fibroblasts), IC50 cytotoxicity (MRC-5)

| SMILES | IC50 [1, 7] [µg/mL] | IC50 [1, 8] [µM] | Selectivity index MRC-5/K1 [1, 9] | IC50 [2, 10] [µg/mL] | IC50 [2, 11] [µM] | IC50 Antimalarial activity (K1 strain) [3] [µg/mL] | IC50 [3] [µM] | further results |
| --- | --- | --- | --- | --- | --- | --- | --- | --- |
| COC(=O)c1cc2c(c(OC)c(=O)c1)OC(C)(C)O2 [Compound 25] | > 12.5 | > 47 | – | – | – | – | – | – |
| CC(C)c1cccc(=O)c(O)c1 [Compound 8, hinokitiol, reference compound] | – | – | – | – | – | 4.92 (≈ 30 µM) | 30 | Selectivity index MRC-5/K1 [3]: 1.20; IC50 Cytotoxicity (MRC-5) [4]: 5.80 µg/mL (≈ 35.3 µM) |
| O=c1cccccc1O [Compound 6, tropolone, reference compound] | – | – | – | – | – | 2.74 (≈ 22.4 µM) | 22.4 | – |
| C[C@@H]1CC[C@H]2[C@@H](C)C(=O)O[C@@H]3O[C@@]4(C)CC[C@@H]1[C@]32OO4 [artemisinin, reference compound] | 0.0057 | – | 7.925 | – | – | – | – | IC50 ([2]; IC50 Cytotoxicity (MRC-5)): 45.2 µg/mL |
| COc1c(O)cc(C(=O)O)cc(O)c1=O [Compound 3, viticolin A] | – | – | – | – | – | 9.92 (≈ 46.8 µM) | 46.8 | Selectivity index MRC-5/K1 [3]: > 10; IC50 Cytotoxicity (MRC-5) [4]: > 100 µg/mL; melting point: 227 °C |
| COc1c2c(cc(C(=O)O)cc1=O)OC(C)(C)O2 [Compound 27] | > 12.5 | > 50 | – | – | – | – | – | – |
| CC1(C)Oc2cc(C=O)cc(O)c(=O)c2O1 [Compound 23] | > 12.5 | > 56 | – | – | – | – | – | – |
| COC(=O)c1cc2c(c(=O)c(OC)c1)OC(C)(C)O2 [Compound 26] | > 12.5 | > 47 | – | – | – | – | – | – |
| O=c1c(O)ccccc1O [Compound 7, 7-hydroxytropolone, reference compound] | – | – | – | – | – | 0.89 (≈ 6.44 µM) | 6.44 | fold stronger IC50 value than that of 5 ([1]; K1 strain, relative to tropone (5)): > 18 fold; Selectivity index MRC-5/K1 [3]: 0.27; IC50 Cytotoxicity (MRC-5) [4]: 0.24 µg/mL (≈ 1.74 µM) |
| O=C(O)c1cc(O)cc(=O)c(O)c1 [Compound 2, stipitatic acid] | – | – | – | – | – | 7.07 (≈ 38.8 µM) | – | Selectivity index MRC-5/K1 [3]: > 14; IC50 Cytotoxicity (MRC-5) [4]: > 100 µg/mL |
| COc1cc(C(=O)O)cc2c(c1=O)OC(C)(C)O2 [Compound 28] | > 12.5 | > 50 | – | – | – | – | – | – |
| O=C(O)c1cc(O)c(O)c(=O)c(O)c1 [Compound 1, puberulic acid] | 0.0087 | 0.044 ± 0.0029 | 480.46 | 4.18 | 289 | 0.01 (≈ 0.0505 µM) | 0.05 | in vivo efficacy, inhibition [5]: 69%; Selectivity index MRC-5/K1 [3]: 5720; toxicity in vivo, mice dying [6]: four out of five; IC50 Cytotoxicity (MRC-5) [4]: 57.20 µg/mL (≈ 289 µM) |
| O=c1cccccc1 [Compound 5, tropone, reference compound] | – | – | – | – | – | > 12.50 | > 118 | – |
| COc1cc(C(=O)O)cc(O)c(OC)c1=O [Compound 4, viticolin B] | – | – | – | – | – | 0.84 (≈ 3.71 µM) | 3.71 | Selectivity index MRC-5/K1 [3]: 8.08; IC50 Cytotoxicity (MRC-5) [4]: 6.79 µg/mL (≈ 30 µM) |
| CCN(CC)CCCC(C)Nc1ccnc2cc(Cl)ccc12 (centres unmarked) [chloroquine, reference compound] | – | – | – | – | – | – | – | IC50 ([1]; K1, read-out: IC50 Antimalarial activity (K1 strain)): 0.18 µg/mL; IC50 [2]: 18.6 µg/mL |
| CC1(C)Oc2cc(C(=O)O)cc(O)c(=O)c2O1 [Compound 24] | > 12.5 | > 50 | – | – | – | – | – | – |

More lines, main results first:

| IC50 [1, 7] [µg/mL] | IC50 [1, 8] [µM] | SMILES | Selectivity index MRC-5/K1 [1, 9] | IC50 [2, 10] [µg/mL] | IC50 [2, 11] [µM] | IC50 Antimalarial activity (K1 strain) [3] [µg/mL] | IC50 [3] [µM] | further results |
| --- | --- | --- | --- | --- | --- | --- | --- | --- |
| 0.038 | 0.21 ± 0.0033 | O=c1c(O)cc(CO)cc(O)c1O [Compound 42, 4-Hydroxymethyl-6,7-dihydroxytropolone] | 0.115 | 0.00435 | 0.024 | – | – | melting point: 162 °C |
| 0.096 | 0.46 ± 0.053 | [N-]=[N+]=NCc1cc(O)c(O)c(=O)c(O)c1 [Compound 44, 4-Azidomethyl-6,7-dihydroxytropolone] | – | 0.00073 | 0.0035 | – | – | – |
| 0.38 | 2.09 ± 0.027 | COCc1ccc(O)c(=O)c(O)c1 [Compound 38, 4-Methoxymethyl-7-hydroxytropolone] | 0.0006 | 0.00024 | 0.0013 | – | – | fold better IC50 than those of 7 and 37 ([1]; K1 strain): approximately 2 fold; IC50 [2, 12]: 0.00132 µM |
| 0.387 | 2.12 ± 0.11 | O=C(O)c1ccc(O)c(=O)c(O)c1 [Compound 40, Iso-stipitatic acid] | 47.82 | 18.6 | 102 | – | – | fold better IC50 than those of 7 and 37 ([1]; K1 strain): approximately 2 fold |
| 0.073 | 0.34 ± 0.022 | COc1cc(C(=O)O)cc(O)c(=O)c1O [Compound 29, Iso-viticolin A] | 162.33 | 11.8 | 55.9 | – | – | fold stronger activity than viticolin A (3) ([1]; K1 strain, relative to viticolin A (3)): approximately 100 fold |
| 0.728 | 4.33 ± 0.03 | O=c1c(O)ccc(CO)cc1O [Compound 37, 4-Hydroxymethyl-7-hydroxytropolone] | 0.0008 | 0.00057 | 0.0034 | – | – | IC50 [2, 12]: 0.00339 µM; melting point: 144 °C (dec.) |
| 0.044 | 0.22 ± 0.0016 | COCc1cc(O)c(O)c(=O)c(O)c1 [Compound 43, 4-Methoxymethyl-6,7-dihydroxytropolone] | 0.041 | 0.00181 | 0.091 | – | – | melting point: 120 °C |
